Source: ChEMBL document CHEMBL1201862, “PubChem BioAssay data set” (2004)
The source made the active and inactive calls.

What was measured:
[1] = Late stage assay provider results from the probe development effort to identify inhibitors of the Plasmodium falciparum M17 Leucine Aminopeptidase (M17LAP): radiolabel-based cell-based dose response assay to identify compounds that inhibit P. falciparum growth in RBCs Set 2.; type: functional
Beta-galactosidase = Beta-galactosidase (Escherichia coli, UniProt Q8VNN2); test: Dose response counterscreen for EBI2 assay utilizing the enzyme, b-galactosidase.; type: functional
[2] = inhibitors of non-replicating M. tuberculosis, dose response, luciferase, dry powder (AID 651619); type: functional; conditions: Mycobacterium tuberculosis
[3] = inhibitors of non-replicating M. tuberculosis, dose response, luciferase, dry powder (AID 651620); type: functional; conditions: Mycobacterium tuberculosis
[4] = growth inhibition of replicating M. tuberculosis, dose response, counter-screen, dry powder, IC90 (AID 651617); type: functional; conditions: Mycobacterium tuberculosis
[5] = cytotoxicity in HeLa cells, dose response, cytotoxicity control, cell-based, plate reader, dry powder (AID 651946); type: functional
[6] = A Cell-Based Confirmatory Screen for Compounds that Inhibit VEEV, TC-83 (5).; type: functional
Paired box protein Pax-8 = Paired box protein Pax-8 (Homo sapiens, UniProt Q06710); test: inhibitors of PAX8-driven TPO luciferase reporter, dose response, RMG-I cells, cherry-pick (AID 687027); type: functional, cell-based;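 further: luciferase reporter driven by Pax8 target thyroperoxidase promoter measured by SteadyGlo luminescence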
[7] = cytotoxicity in OVCAR4 cells, dose response, cytotoxicity control for PAX8 inhibitor project, cell-based, plate reader, dry powder, SA11 (AID 743150); type: functional; conditions: OVCAR-4
[8] = cytotoxicity in COV362 ovarian cancer cells, dose response, cytotoxicity control for PAX8 inhibitor project, cell-based, plate reader, dry powder, SA12 (AID 743144); type: functional
[9] = miR-122 activators in hepatoma reporter cells, dose response, cell-based, Huh7 psiCHECK-miR122, Renilla luciferase, cherry-picked (AID 651956); type: functional;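 further: huh7 hepatoma cells stably carrying a psiCHECK-2 miR-122 sensor plasmid; renilla luciferase signal reporting endogenous miR-122 activity after 48 h compound exposure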
[10] = IGROV1 ovarian cancer cell cytotoxicity, dose response, PAX8 inhibitor project, plate reader, dry powder samples (AID 743043); type: functional, cell-based; conditions: IGROV-1
[11] = cytotoxicity in OV-90 ovarian cancer cells, dose response, PAX8 inhibitor project, cell-based, plate reader, dry powder, SA8 (AID 743149); type: functional
[12] = IOSE-T80 ovarian epithelial cell cytotoxicity, dose response, cytotoxicity control for PAX8 inhibitor project, plate reader, dry powder samples (AID 743045); type: functional, cell-based
[13] = cytotoxicity in COV434 cells, dose response, cytotoxicity control for PAX8 inhibitor project, cell-based, plate reader, dry powder, SA7 (AID 743145); type: functional
[14] = cytotoxicity dependent on PAX8, dose response, cell-based, plate reader, dry powder (AID 743049); type: functional
[15] = inhibitors of PGC1a acetylation in cells, dose response, cell-based, cherry-picked samples (AID 720514); type: functional;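 further: potency may reflect raised or lowered acetylation signal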
[16] = NIH:OVCAR-3 ovarian cancer cell cytotoxicity, dose response, PAX8 inhibitor project, plate reader, dry powder samples (AID 743044); type: functional, cell-based
[17] = cytotoxicity in OVCAR8 ovarian cancer cells, dose response, PAX8 project, cell-based, plate reader, dry powder samples (AID 743197); type: functional; conditions: OVCAR-8
[18] = target: T1, High affinity choline transporter 1 (Homo sapiens, UniProt Q9GZV3); test: CHT choline uptake inhibitors, dose response, cell-based, HEK-293 hCHT, [3H]-choline uptake (AID 652177); type: functional
T1 sequence (Q9GZV3 whole entry): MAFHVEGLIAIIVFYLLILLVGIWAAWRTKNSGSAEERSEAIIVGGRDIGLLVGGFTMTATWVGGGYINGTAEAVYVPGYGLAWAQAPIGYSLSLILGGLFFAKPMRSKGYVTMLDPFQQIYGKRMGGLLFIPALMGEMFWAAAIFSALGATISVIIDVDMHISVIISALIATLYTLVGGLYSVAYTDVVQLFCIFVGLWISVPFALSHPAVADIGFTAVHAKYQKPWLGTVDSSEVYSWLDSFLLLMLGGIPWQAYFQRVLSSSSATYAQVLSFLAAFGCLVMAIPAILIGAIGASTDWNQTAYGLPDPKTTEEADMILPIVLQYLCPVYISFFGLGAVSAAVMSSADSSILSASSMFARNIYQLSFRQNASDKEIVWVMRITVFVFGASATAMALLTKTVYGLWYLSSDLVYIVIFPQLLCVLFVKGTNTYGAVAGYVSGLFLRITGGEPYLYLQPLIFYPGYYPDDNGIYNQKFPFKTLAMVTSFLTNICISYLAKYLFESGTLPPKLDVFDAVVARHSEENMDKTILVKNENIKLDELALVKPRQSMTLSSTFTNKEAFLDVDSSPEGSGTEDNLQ

[19] = YAP1 pathway inhibition via CTGF transcript levels, dose response, cell-based, DLD1 colon cancer, RT-qPCR, cherry-pick (AID 1053122); type: functional; conditions: Cancer cell lines
[20] = Late stage assay provider results from the probe development effort to identify inhibitors of the Plasmodium falciparum M18 Aspartyl Aminopeptidase (M18AAP): radiolabel-based cell-based dose response assay to identify compounds that inhibit P. falciparum growth in RBCs, Set 2..; type: functional
[21] = A2780 ovarian cancer cell cytotoxicity, dose response, cytotoxicity control, plate reader, dry powder samples (AID 743046); type: functional, cell-based

Sequence of Paired box protein Pax-8 (Q06710 whole entry): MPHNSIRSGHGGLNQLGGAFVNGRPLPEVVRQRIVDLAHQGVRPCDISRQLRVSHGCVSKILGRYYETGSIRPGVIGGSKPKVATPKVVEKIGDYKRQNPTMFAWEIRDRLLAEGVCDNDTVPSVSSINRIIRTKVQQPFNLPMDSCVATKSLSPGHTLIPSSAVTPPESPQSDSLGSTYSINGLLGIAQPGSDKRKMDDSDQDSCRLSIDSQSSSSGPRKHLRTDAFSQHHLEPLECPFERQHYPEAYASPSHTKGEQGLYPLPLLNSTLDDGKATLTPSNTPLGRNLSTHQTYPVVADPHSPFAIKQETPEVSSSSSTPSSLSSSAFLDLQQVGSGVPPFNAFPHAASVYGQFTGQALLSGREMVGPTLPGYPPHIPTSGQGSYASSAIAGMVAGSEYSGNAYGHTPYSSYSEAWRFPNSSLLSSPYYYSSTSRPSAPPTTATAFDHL
Sequence of Beta-galactosidase (Q8VNN2 whole entry): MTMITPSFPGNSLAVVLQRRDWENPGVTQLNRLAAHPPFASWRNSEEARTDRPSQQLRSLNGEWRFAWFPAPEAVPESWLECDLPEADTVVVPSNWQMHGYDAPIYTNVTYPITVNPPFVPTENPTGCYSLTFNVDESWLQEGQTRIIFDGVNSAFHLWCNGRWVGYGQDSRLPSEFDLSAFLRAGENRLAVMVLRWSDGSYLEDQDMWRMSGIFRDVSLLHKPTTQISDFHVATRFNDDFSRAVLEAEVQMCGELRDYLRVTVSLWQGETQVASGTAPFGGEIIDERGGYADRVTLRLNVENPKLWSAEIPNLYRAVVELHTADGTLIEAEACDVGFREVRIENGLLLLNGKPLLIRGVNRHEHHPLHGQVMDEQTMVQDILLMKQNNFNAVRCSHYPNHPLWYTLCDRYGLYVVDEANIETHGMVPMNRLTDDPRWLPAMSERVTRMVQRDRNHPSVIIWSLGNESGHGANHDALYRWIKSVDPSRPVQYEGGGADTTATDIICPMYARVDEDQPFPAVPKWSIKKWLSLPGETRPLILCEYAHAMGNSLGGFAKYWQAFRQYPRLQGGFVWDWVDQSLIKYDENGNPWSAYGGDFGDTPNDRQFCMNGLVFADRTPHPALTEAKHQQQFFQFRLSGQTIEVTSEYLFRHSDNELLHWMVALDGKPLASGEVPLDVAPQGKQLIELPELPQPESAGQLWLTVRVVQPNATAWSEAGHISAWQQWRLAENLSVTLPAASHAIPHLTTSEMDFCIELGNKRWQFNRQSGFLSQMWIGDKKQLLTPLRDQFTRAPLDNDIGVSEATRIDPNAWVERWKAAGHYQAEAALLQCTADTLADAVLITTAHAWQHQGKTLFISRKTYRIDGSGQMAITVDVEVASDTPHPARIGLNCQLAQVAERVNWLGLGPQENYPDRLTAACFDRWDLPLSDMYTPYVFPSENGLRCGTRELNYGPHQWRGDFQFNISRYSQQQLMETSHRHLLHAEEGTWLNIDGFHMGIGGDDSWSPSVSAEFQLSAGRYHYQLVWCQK

With CCCOc1ccc(CC(=O)NO)cc1 as the compound, how does the IC50 [1] read?
Its IC50 is 8.6 µM (active).

With O=C(COc1ccc(Cl)cc1)N1CCN(Cc2ccc([N+](=O)[O-])cc2)CC1 as the compound, how does the IC50 (Beta-galactosidase) read?
The IC50 was > 80 µM (inactive).

Which IC90 [2] does the source give for Cc1cccc(CSc2nnc(-c3ccc(Cl)cc3)o2)n1 here?
The IC90 was 2 µM (active).

What about the IC90 [3] of the same compound?
Its IC90 is 2 µM (active).

And the IC90 [4]?
Its IC90 is 125 µM (active).

What about the AC50 [5] of the same compound?
Its AC50 is > 24 µM (inactive).

With O=c1c2cc([N+](=O)[O-])ccc2nc(CN2CCCCC2)n1-c1ccccc1F as the compound, how does the IC50 [6] read?
The IC50 was 4.7 µM (active).

For CN(C[C@H]1N[C@@H](CO)[C@@H]1c1ccc(C2=CCCC2)cc1)C(=O)c1ccc(F)cc1, which AC50 (Paired box protein Pax-8) is on record?
The AC50 was 0.895 µM (active).

What about the AC50 [7] of the same compound?
The AC50 was 1.57 µM (active).

And the AC50 [8]?
The AC50 was 3.27 µM (active).

And the AC50 [9]?
The AC50 was 13 µM (active).

What about the AC50 [10] of the same compound?
The AC50 was 4.15 µM (active).

What about the AC50 [11] of the same compound?
The AC50 was 9.17 µM (active).

What about the AC50 [12] of the same compound?
Its AC50 is 3.25 µM (active).

And the AC50 [13]?
The AC50 was 5.17 µM (active).

What about the AC50 [14] of the same compound?
The AC50 was 2.21 µM (active).

What about the AC50 [15] of the same compound?
The AC50 was 0.25 µM (active).

And the AC50 [16]?
Its AC50 is 5.63 µM (active).

And the AC50 [17]?
The AC50 was 4.04 µM (active).

With COc1ccc(C(=O)NCc2cc(C(C)C)no2)cc1OCCN1CCCCC1 as the compound, how does the IC50 [18] read?
Its IC50 is 0.76 µM (active).

For C[C@H]1CN([C@@H](C)CO)C(=O)c2cccc(NC(=O)c3nc4ccccc4s3)c2O[C@@H]1CN(C)C(=O)Nc1ccc2c(c1)OCO2, which AC50 [19] is on record?
Its AC50 is 1.82 µM (active).

For COc1ccc(CCCNc2c3ccccc3nc3ccccc23)cc1OC, which IC50 [20] is on record?
The IC50 was 2.2 µM (active).

What does the source list for C[C@@H]1CCCCO[C@@H](CN(C)Cc2ccc(Cl)c(Cl)c2)[C@H](C)CN([C@@H](C)CO)C(=O)c2cc(NC(=O)Nc3ccccc3)ccc2O1?
AC50 (Paired box protein Pax-8): 11.6 µM (active); AC50 [21]: 3.09 µM (active)
